From the NIST ThermoML archive (doi:10.1021/acs.jced.6b00168)

Assay: mn = molality of the nth substance listed, in mol/kg
Conditions: 100 kPa, Liquid; for speed of sound: Frequency=3 MHz, Sing-around technique in a fixed-path interferometer; for mass density: Vibrating tube method

CC(C)C[C@H](N)C(=O)O [L-leucine] + O
Conditions | mass density, 288.15 K [kg/m3] | mass density, 298.15 K [kg/m3] | mass density, 308.15 K [kg/m3] | mass density, 318.15 K [kg/m3] | speed of sound, 288.15 K [m/s] | speed of sound, 298.15 K [m/s] | speed of sound, 308.15 K [m/s] | speed of sound, 318.15 K [m/s]
m1 = 0.00991 | 999.363 | 997.29 | 994.279 | 990.433 | 1468 | 1497 | 1520.5 | 1537
m1 = 0.02042 | 999.615 | 997.535 | 994.535 | 990.663 | 1469.3 | 1498.2 | 1521.5 | 1538
m1 = 0.04026 | 1000.09 | 998.005 | 994.994 | 991.098 | 1471.8 | 1500.4 | 1523.5 | 1539.8
m1 = 0.06014 | 1000.6 | 998.476 | 995.441 | 991.533 | 1474.2 | 1502.6 | 1525.5 | 1541.7
m1 = 0.0802 | 1001.07 | 998.929 | 995.893 | 991.972 | 1476.7 | 1504.9 | 1527.5 | 1543.5
m1 = 0.1002 | 1001.57 | 999.402 | 996.345 | 992.41 | 1479.2 | 1507.1 | 1529.5 | 1545.3
m1 = 0.1246 | 1002.13 | 999.979 | 996.896 | 992.945 | 1482.3 | 1509.8 | 1532 | 1547.6
m1 = 0.1502 | 1002.71 | 1000.56 | 997.446 | 993.506 | 1485.5 | 1512.7 | 1534.6 | 1550

CC(C)C[C@H](NC(=O)CN)C(=O)O [glycyl-L-leucine] + O
Conditions | mass density, 288.15 K [kg/m3] | mass density, 298.15 K [kg/m3] | mass density, 308.15 K [kg/m3] | mass density, 318.15 K [kg/m3] | speed of sound, 288.15 K [m/s] | speed of sound, 298.15 K [m/s] | speed of sound, 308.15 K [m/s] | speed of sound, 318.15 K [m/s]
m1 = 0.01036 | 999.623 | 997.544 | 994.554 | 990.713 | 1468.4 | 1497.4 | 1521 | 1537.6
m1 = 0.02041 | 1000.14 | 998.07 | 995.045 | 991.171 | 1470.1 | 1499 | 1522.6 | 1539.1
m1 = 0.04005 | 1001.13 | 999.05 | 995.995 | 992.11 | 1473.3 | 1502 | 1525.5 | 1542
m1 = 0.06009 | 1002.13 | 999.995 | 996.94 | 993.02 | 1476.6 | 1505.2 | 1528.5 | 1544.9
m1 = 0.08023 | 1003.08 | 1000.95 | 997.866 | 993.927 | 1479.9 | 1508.3 | 1531.5 | 1547.9
m1 = 0.09965 | 1004.02 | 1001.9 | 998.802 | 994.85 | 1483.1 | 1511.3 | 1534.4 | 1550.7
m1 = 0.1502 | 1006.4 | 1004.28 | 1001.19 | 997.236 | 1491.4 | 1519.2 | 1542 | 1558.2
m1 = 0.2014 | 1008.79 | 1006.66 | 1003.57 | 999.61 | 1499.8 | 1527.1 | 1549.7 | 1565.7
